From patent US5776929A, “Benzodiazepine derivative” (Shionogi & Co., Ltd., priority 1993, dated 1998)

How the values were obtained:
gastric acid secretion = test: Inhibitory effect on gastric acid secretion by Schild method (pentagastrin-stimulated); format: in vivo, rat (male Sprague Dawley); conditions: intraduodenal, rat, read-out: Inhibitory Effect on acid secretion (Schild method), percent inhibition
Description: Evaluation of Inhibitory Effect on Gastric Acid Secretion by Schild Method
Twenty four hour starved (ad libitum for water) male Sprague Dawley rats (8-week-old) were anesthetized with urethane (1.5 g/kg S.C.) and kept breathing with esophagus cannulas. After laparotomy, esophagus cannulas were inserted orally up to proventriculus and ligated around gastric cardiac. Perfusion cannulas were inserted from duodenum into stomach and ligated around pylorus. Another cannulas were placed into duodenum and ligated for administration of drug. After sutra of abdomen, stomach was perfused via the esophagus cannulas with physiological saline (37° C.) while collecting perfusate for a 15 min interval. The perfusate was subjected to titration with 0.001 N NaOH solution to determine the acidity. When the basal acid secretion became stable, pentagastrin ([…]) was administered in a sustained manner via common carotid vein for about 90 min until the acid secretion reached approximately the highest level, when a test compound (0.5% M.C. suspension) was administered into duodenum through cannulas. The perfusate was collected for a 15 min interval to monitor the acid secretion for 90 min. The percent inhibition was calculated as follows:
Percent inhibition (%)=100×(A-B)/(C-B)
A: the minimum value of total acidity observed after the administration of a test compound;
B: the total acidity obtained immediately before the administration of pentagastrin; and
C: the total acidity obtained immediately before the administration of a test compound.

CCK-B receptor = molecular target: T1, CCK-B receptor (Mus musculus, UniProt P56481); test: CCK-B receptor antagonism, displacement of [3H]CCK-8, cerebral cortex crude membrane; format: binding, mouse (male ddY); conditions: mouse cerebral cortex membrane, [3H]CCK-8 1 nM, 90 min, 25 °C; read-out: Receptor CCK-B (IC50)
T1 construct: crude membrane specimen from mouse cerebral cortex; from tissue; host or cells: cerebral cortex of male ddY mice, crude membranes
T1 sequence (P56481 1-453): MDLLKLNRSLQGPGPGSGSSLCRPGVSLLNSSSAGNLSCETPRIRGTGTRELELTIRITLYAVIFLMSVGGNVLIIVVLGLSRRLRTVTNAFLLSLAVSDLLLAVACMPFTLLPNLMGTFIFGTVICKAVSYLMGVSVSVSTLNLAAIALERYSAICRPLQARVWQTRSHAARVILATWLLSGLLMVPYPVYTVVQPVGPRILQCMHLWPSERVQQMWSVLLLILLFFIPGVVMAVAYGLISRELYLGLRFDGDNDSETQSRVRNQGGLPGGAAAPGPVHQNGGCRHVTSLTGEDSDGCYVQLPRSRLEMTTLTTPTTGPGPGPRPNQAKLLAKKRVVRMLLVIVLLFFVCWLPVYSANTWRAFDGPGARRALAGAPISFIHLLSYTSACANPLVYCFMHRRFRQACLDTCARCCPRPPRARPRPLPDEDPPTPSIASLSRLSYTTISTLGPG
Experimental: (§1) Male Hartley guinea pig (450-600 g) or male ddY mouse (24-30 g) were used.
(§2) (2) CCK-A Receptor Antagonism and CCK-B Receptor Antagonism
(§3) Preparation of CCK receptor preparations
(§4) Male ddY mice (24 to 30 g) were killed by decapitation and cerebral cortex (CCK-B) and pancreas (CCK-A) were extracted immediately. Each of cerebral cortex and pancreas was mixed with 50 mM Tris-HCl buffer (pH 7.4) and homogenized with a teflon-glass homogenizer and polytron homogenizer to obtain crude membrane specimens.
(§5) Preparation of test compounds and procedures of displacing assay A 1M solution of a compound to be tested in DMSO is prepared and diluted with 50% DMSO to obtain a ten-fold dilution series.
(§6) The reaction is initiated by the addition of crude membrane specimen to solutions of different concentration each containing [^3 H]CCk-8 (final concentration, 1 nM). The mixture is incubated for 90 min at 25° C., filtered through glass filter with aspiration and washed with a cooled 50 mM Tris buffer. After the addition of Aquazol-2 cocktail the radioactivity is counted. The same procedure was repeated using 50% DMSO solution or Ceruletide (final concentration, 1 μM) instead of a solution of test compound so as to obtain the control value regarding total binding or the value regarding non-specific binding, respectively. […]
(§7) specific binding of control=total binding (cpm)-non-specific binding (cpm); and specific binding of test compound=[…]-non-specific binding (cpm).

CCK-A receptor = molecular target: T2, CCK-A receptor (Mus musculus, UniProt O08786); test: CCK-A receptor antagonism, displacement of [3H]CCK-8, pancreas crude membrane; format: binding, mouse (male ddY); conditions: mouse pancreas membrane, [3H]CCK-8 1 nM, 90 min, 25 °C; read-out: Receptor CCK-A (IC50)
T2 construct: crude membrane specimen from mouse pancreas; from tissue; host or cells: pancreas of male ddY mice, crude membranes
T2 sequence (O08786 1-436): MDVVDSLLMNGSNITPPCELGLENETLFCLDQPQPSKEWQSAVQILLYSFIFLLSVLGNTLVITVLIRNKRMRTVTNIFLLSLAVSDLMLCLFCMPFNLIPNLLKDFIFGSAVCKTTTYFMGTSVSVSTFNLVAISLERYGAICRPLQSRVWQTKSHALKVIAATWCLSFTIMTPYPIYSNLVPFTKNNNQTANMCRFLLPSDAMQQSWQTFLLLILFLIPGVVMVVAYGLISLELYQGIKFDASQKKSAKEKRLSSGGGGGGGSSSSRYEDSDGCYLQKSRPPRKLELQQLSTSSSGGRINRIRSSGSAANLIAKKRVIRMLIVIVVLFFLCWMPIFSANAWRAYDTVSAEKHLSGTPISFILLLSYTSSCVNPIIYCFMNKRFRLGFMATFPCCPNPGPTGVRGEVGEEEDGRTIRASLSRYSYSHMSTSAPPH
Experimental: as §1, §2, §3, §4, §5, §6, §7

gastrin receptor = molecular target: T3, gastrin receptor (Cavia porcellus, UniProt H0VZC5); test: Gastrin receptor antagonism, displacement of 125I-labeled gastrin, gastric (fundic) gland cells; format: binding, guinea pig (male Hartley); conditions: guinea pig gastric glands, 125I-gastrin 0.2 nM, 30 min, 25 °C; read-out: Receptor Gastrin (IC50)
T3 construct: stomach was extracted from each animal immediately, from which gastric glands were prepared; from tissue; host or cells: gastric (fundic) glands of male Hartley guinea pigs
T3 sequence (H0VZC5 1-426): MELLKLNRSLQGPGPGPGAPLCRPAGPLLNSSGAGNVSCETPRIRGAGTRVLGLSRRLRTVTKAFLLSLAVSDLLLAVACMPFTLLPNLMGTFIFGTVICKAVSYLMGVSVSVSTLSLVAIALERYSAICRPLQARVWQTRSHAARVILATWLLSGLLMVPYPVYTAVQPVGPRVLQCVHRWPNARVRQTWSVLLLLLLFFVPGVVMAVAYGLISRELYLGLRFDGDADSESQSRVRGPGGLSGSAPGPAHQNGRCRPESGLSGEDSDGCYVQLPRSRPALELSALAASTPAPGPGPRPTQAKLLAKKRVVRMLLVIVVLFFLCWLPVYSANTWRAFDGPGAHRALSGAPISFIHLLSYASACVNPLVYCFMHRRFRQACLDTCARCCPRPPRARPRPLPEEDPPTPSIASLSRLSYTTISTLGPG
Experimental: as §1
(1) Gastrin Receptor Antagonism
Preparation of gastric glands:
Male Hartley guinea pigs (450-600 g) were killed by bleeding and stomach was extracted from each animal immediately, from which gastric glands were prepared.
Preparation of test compounds and procedures of displacing assay
A 1M solution of a compound to be tested in DMSO is prepared and diluted with 50% DMSO to obtain a ten-fold dilution series.
The mixture is incubated for 30 min at 25° C., centrifuged at 2000 rpm for 5 min and the supernatant is removed by aspiration. To the pellet is added ice-cooled incubation buffer and mixed gently, followed by an immediate centrifugation and removal of the supernatant by aspiration. The radioactivity is counted on gamma counter. The same procedure was repeated using 50% DMSO solution or human gastrin I (final concentration, 2 μM) instead of a solution of test compound so as to obtain the control value regarding total binding or the value regarding non-specific binding, respectively. […]
as §7

SMILES	IC50 (CCK-B receptor)	IC50 (CCK-A receptor)	IC50 (gastrin receptor)	inhibition in vivo at 0.3 mg/kg (gastric acid secretion)	inhibition in vivo at 0.1 mg/kg (gastric acid secretion)	inhibition in vivo at 0.5 mg/kg (gastric acid secretion; 0.5 mg/kg)
O=C(Nc1cccc(-c2nc(=O)o[nH]2)c1)NC1C(=O)N(CC(=O)C2CC2)c2ccccc2N(CC(=O)C2CC2)C1=O [Compound 17-x, 1,5-Bis-(cyclopropylcarbonylmethyl)-3-(N'-(m-(5-keto-1,2,4-oxadiazol-3-yl)phenyl)ureido)-1H-1,5-benzodiazepine-2,4(3H,5H)-dione]	3 nM	360 nM	1 nM	70%		
O=C(Nc1cccc(SCc2nnn[nH]2)c1)NC1C(=O)N(CC(=O)C2CC2)c2ccccc2N(CC(=O)C2CC2)C1=O [Compound 17-xvii]	1 nM	1300 nM	< 1 nM		30%	
CCOC(=O)c1cccc(NC(=O)NC2C(=O)N(CC(=O)C3CC3)c3ccccc3N(CC(=O)C3CC3)C2=O)c1 [Compound 17-i]	140 nM	1350 nM	7 nM	44%		
O=C(Nc1cccc(-c2nnn[nH]2)c1)NC1C(=O)N(CC(=O)c2cccs2)c2ccccc2N(CC(=O)c2cccs2)C1=O [Compound 20-iv, 1,5-Bis-(thienylcarbonylmethyl)-3-(N'-(m-tetrazolylphenyl)ureido)-1H-1,5-benzodiazepine-2,4(3H,5H)-dione]	3 nM	380 nM	2 nM	65%		
O=C(Nc1cccc(OCc2nnn[nH]2)c1)NC1C(=O)N(CC(=O)C2CC2)c2ccccc2N(CC(=O)C2CC2)C1=O [Compound 17-vii, 1,5-Bis-(cyclopropylcarbonylmethyl)-3-(N'-(m-(tetrazoylmethoxy)phenyl)ureido)-1H-1,5-benzodiazepine-2,4(3H,5H)-dione]	4 nM	1800 nM	11 nM	68%		
O=C(Nc1cccc(-c2nnn[nH]2)c1)NC1C(=O)N(CC(=O)N2CCCC2)c2ccccc2N(CC(=O)N2CCCC2)C1=O [Compound 18-iv]	38 nM	3600 nM	4 nM	65%		
O=C(Nc1cccc(C(=O)O)c1)NC1C(=O)N(CC(=O)C2CC2)c2ccccc2N(CC(=O)C2CC2)C1=O [Compound 17-ii]	105 nM	> 10000 nM	5 nM	72%		
O=C(Nc1cccc(-c2nnn[nH]2)c1)NC1C(=O)N(CC(=O)C2CC2)c2ccccc2N(CC(=O)C2CC2)C1=O [Compound 17-iv, 1,5-Bis-(cyclopropylcarbonylmethyl)-3-(N'-(m-(tetrazoyl)phenyl)ureido)-1H-1,5-benzodiazepine-2,4(3H,5H)-dione]	8 nM	2900 nM	2 nM		44%	
O=C(O)COc1cccc(NC(=O)NC2C(=O)N(CC(=O)C3CC3)c3ccccc3N(CC(=O)C3CC3)C2=O)c1 [Compound 17-vi, 1,5-Bis-(cyclopropylcarbonylmethyl)-3-(N'-(m-(carboxymethoxy)phenyl)ureido)-1H-1,5-benzodiazepine-2,4(3H,5H)-dione]	16 nM	4400 nM	3 nM	22%		
O=C(Nc1cccc(-c2nnn[nH]2)c1)NC1C(=O)N(CC2CC2)c2ccccc2N(CC2CC2)C1=O [Compound 19-iv, 1,5-Bis-(cyclopropylmethyl)-3-(N'-(m-tetrazolylphenyl)ureido)-1H-1,5-benzodiazepine-2,4(3H,5H)-dione]	26 nM	2600 nM	6 nM			58%

Now from value to molecule, other results behind:

IC50 (CCK-B receptor)	IC50 (CCK-A receptor)	IC50 (gastrin receptor)	SMILES	inhibition in vivo at 0.3 mg/kg (gastric acid secretion)	inhibition in vivo at 0.1 mg/kg (gastric acid secretion)	inhibition in vivo at 0.5 mg/kg (gastric acid secretion; 0.5 mg/kg)
18 nM	380 nM	5 nM	Cc1cccc(NC(=O)NC2C(=O)N(CC(=O)C3CC3)c3ccccc3N(CC(=O)C3CC3)C2=O)c1 [Compound 8h, 1,5-Bis-(cyclopropylcarbonylmethyl)-3-(N'-(m-tolyl)ureido)-1H-1,5-benzodiazepine-2,4(3H,5H)-dione]	81%		
17 nM	120 nM	3 nM	Cc1cccc(NC(=O)NC2C(=O)N(CC(=O)c3ccco3)c3ccccc3N(CC(=O)c3ccco3)C2=O)c1 [Compound 8f, 1,5-Bis-(2-furylcarbonylmethyl)-3-{N'-(m-tolyl)-ureido}-1H-1,5-benzodiazepine-2,4(3H,5H)-dione]	73%		
54 nM	860 nM	7 nM	Cc1cccc(NC(=O)NC2C(=O)N(CC(=O)N3CCCC3)c3ccccc3N(CC(=O)N3CCCC3)C2=O)c1 [Compound 8a]	49%		
23 nM	860 nM	12 nM	Cc1cccc(NC(=O)NC2C(=O)N(CC3CC3)c3ccccc3N(CC3CC3)C2=O)c1 [Compound 8o, 1,5-Bis-(cyclopropylmethyl)-3-{N'-(m-tolyl)-ureido}-1H-1,5-benzodiazepine-2,4(3H,5H)-dione]	60%		
